Measurements taken from ChEMBL document CHEMBL2331078, “Quantitative purity-activity relationships of natural products: the case of anti-tuberculosis active triterpenes from Oplopanax horridus” (2013).
In brackets after ≈: the same amount, converted by molar mass. Activity calls are given as the source filed them. The rule behind the calls is not given here.

Tests used:
[1] = system: Mycobacterium tuberculosis; experiment: Antimycobacterial activity against Mycobacterium tuberculosis; format: functional
[2] = system: Mycobacterium tuberculosis; experiment: Antimycobacterial activity against Mycobacterium tuberculosis H37Rv ATCC 27294 by Alamar blue assay; format: functional, organism-based

| SMILES | MIC [1] [µg/mL] | Activity [2] |
| --- | --- | --- |
| C=C(C)[C@@H]1CC[C@]2(C(=O)O)CC[C@]3(C)[C@H](CC[C@@H]4[C@@]5(C)CC[C@@H](O)[C@@](C)(C(=O)O)[C@@H]5CC[C@]43C)[C@@H]12 | 54 (≈ 111 µM) | Active |
| CC1(C)CC[C@]2(C(=O)O)CC[C@]3(C)C(=CC[C@@H]4[C@@]5(C)CC[C@@H](O)[C@@](C)(C(=O)O)[C@@H]5CC[C@]43C)[C@@H]2C1 | – | Active |
| CC1(C)CC[C@]2(C(=O)O)CC[C@]3(C)C(=CC[C@@H]4[C@@]5(C)CC[C@H](O)C(C)(C)[C@@H]5CC[C@]43C)[C@@H]2C1 [OLEANOLIC_ACID] | 29 (≈ 63.5 µM) | – |
| C=C(C)[C@@H]1CC[C@]2(C(=O)O)CC[C@]3(C)[C@H](CC[C@@H]4[C@@]5(C)CC[C@H](O)C(C)(C)[C@@H]5CC[C@]43C)[C@@H]12 [BETULINIC ACID] | 62 (≈ 136 µM) | – |
